Test results from publication PMC9550643 (iScience, 2022).
Read-outs that look alike come from different tables or passages of the source.

How the values were obtained:
[1] = test system: estrogen receptor; conditions: ref Kolle et al., 2010; cited from earlier work
[2] = target: T1, estrogen receptor-α (ERα) (Homo sapiens, UniProt P03372); assay type: cell-based; conditions: iER-GFP cells, 2 h; mixtures as dilution series, chemicals 1 nM to 100 μM
T1 sequence (P03372 1-595): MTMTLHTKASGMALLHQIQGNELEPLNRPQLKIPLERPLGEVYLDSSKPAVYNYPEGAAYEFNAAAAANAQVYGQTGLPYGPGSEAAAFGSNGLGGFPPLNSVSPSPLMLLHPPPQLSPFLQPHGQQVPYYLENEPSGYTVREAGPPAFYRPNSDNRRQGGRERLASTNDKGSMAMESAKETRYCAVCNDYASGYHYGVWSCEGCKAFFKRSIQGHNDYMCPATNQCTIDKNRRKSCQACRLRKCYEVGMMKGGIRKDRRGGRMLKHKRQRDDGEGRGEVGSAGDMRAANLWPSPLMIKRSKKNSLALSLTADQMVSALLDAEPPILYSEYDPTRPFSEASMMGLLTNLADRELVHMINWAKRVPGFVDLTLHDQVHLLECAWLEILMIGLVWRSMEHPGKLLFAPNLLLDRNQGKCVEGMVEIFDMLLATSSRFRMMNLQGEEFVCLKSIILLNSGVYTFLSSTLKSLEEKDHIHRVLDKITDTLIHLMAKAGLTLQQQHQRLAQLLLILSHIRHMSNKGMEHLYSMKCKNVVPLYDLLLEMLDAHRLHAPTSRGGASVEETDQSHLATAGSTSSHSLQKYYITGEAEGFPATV

[3] = test system: dsRed2skl mRNA; assay type: cell-based, Human; conditions: 2 h
[4] = test system: SRC-1, SRC-3, and phosphorylated RNA Pol II (serine 5); experiment: Immunofluorescence of co-activator and RNA Pol II recruitment to the PRL-array; assay type: cell-based, Human; conditions: GFP-ER and iER-GFP cells, 10 nM, 2 h

## CC(=O)[C@H]1CC[C@H]2[C@@H]3CCC4=CC(=O)CC[C@]4(C)[C@H]3CC[C@]12C [Progesterone]
[1]
  activity in yeast-based estrogenic assays: (anti-)estrogenic activity

## C[C@]12C[C@H](O)[C@H]3[C@@H](CCC4=CC(=O)CC[C@@]43C)[C@@H]1CC[C@@H]2C(=O)CO [Corticosterone]
[1]
  activity in yeast-based estrogenic assays: (anti-)estrogenic activity

## CCOP(=S)(OCC)SCSP(=S)(OCC)OCC [ethion]
[2]
  chromatin binding activity (AUC) as share of the activity observed with E2: at least 10%

## COc1ccc(C(c2ccc(OC)cc2)C(Cl)(Cl)Cl)cc1 [Methoxychlor]
[2]
  chromatin binding activity (AUC) as share of the activity observed with E2: at least 10%

## OC(c1ccc(Cl)cc1)(c1ccc(Cl)cc1)C(Cl)(Cl)Cl [Dicofol]
[2]
  chromatin binding activity (AUC) as share of the activity observed with E2: at least 10%

## Clc1ccc(C(c2ccccc2Cl)C(Cl)(Cl)Cl)cc1 (centres unmarked) [o,p'-DDT]
[2]
  chromatin binding activity (AUC) as share of the activity observed with E2: at least 10%

## C[C@]12CC[C@@H]3c4ccc(O)cc4CC[C@H]3[C@@H]1CC[C@@H]2O [E2, 17β-estradiol]
[3]; GFP-ER cells
  dsRed2skl FISH signal, increase above untreated: 3.2 fold
  maximal induced dsRed2skl FISH signal: 39,685 ± 2338 IU
[3]; iER-GFP cells
  dsRed2skl FISH signal, increase above untreated: 11.4 fold
  maximal induced dsRed2skl FISH signal: 234,008 ± 1329 IU
[3]; iGFP-ER cells
  dsRed2skl FISH signal, increase above untreated: 5.0 fold
  maximal induced dsRed2skl FISH signal: 84,564 ± 628 IU
[4]
  recruitment of SRC-3 to the PRL-array: strong recruitment

## O=S1OCC2C(CO1)C1(Cl)C(Cl)=C(Cl)C2(Cl)C1(Cl)Cl (centres unmarked) [endosulfan]
[2]
  chromatin binding activity (AUC) as share of the activity observed with E2: at least 10%
